Values quoted from earlier work, collected in patent publication US20250302824A1, “IN SITU READY-TO-USE INJECTION FORMULATIONS OF POSACONAZOLE FREE OF CYCLODEXTRIN AND ITS DERIVATIVES” (Hefei Cosource Pharmaceuticals Co., Ltd, priority 2024, published 2025).
Converted amounts (≈) assume the structure as drawn. Like-named read-outs stand apart in the source and are kept apart here.

In the case of `CC[C@@H]([C@H](C)O)n1ncn(-c2ccc(N3CCN(c4ccc(OC[C@@H]5CO[C@@](Cn6cncn6)(c6ccc(F)cc6F)C5)cc4)CC3)cc2)c1=O` [Posaconazole], the solubility (at pH 1) is listed as 800 µg/mL (≈ 1140 µM) and the solubility (in neutral and alkaline solutions) is listed as “less than 1 μg/ml”.
